# Legend:
# [1] = tested on: GFP-ATF6 in U2OS-GFP-ATF6 cells; assay: ATF6 nuclear localization, high-content imaging; format: cell-based; settings: 10 μM, 5 h
# Description: 300 μL of 1.375×10^4 U2OS-GFP-ATF6 cells per ml were plated per well in 96 well imaging plate (ibidi 89626) and sealed with breathable seals (E&K Scientific T896100) two days prior to drug addition. Immediately prior to addition to cells, compounds were diluted to 6× in media from 500×DMSO stock and 60 μL 6× was added to cells for 1× final (0.2% DMSO).
# After 5h, media was removed and cells were fixed in 4% PFA (Electron Microscopy Sciences 15714) in PHEM buffer (60 mM PIPES, 25 mM HEPES, 10 mM EGTA, 2 mM MgCl2-hexahydrate, pH 6.9) for 15 minutes at RT. […]
# Images were analyzed using CellProfiler^7, MATLAB R2014a and GraphPad Prism 5. […] The ratio of the GFP intensity in the nucleus versus the ER was calculated for each cell and plotted as a histogram per well. A threshold for the minimum ratio of nuclear to ER signal corresponding to an activated (i.e. nuclear localized ATF6) cell was calculated as the minimum nuclear: ER ratio greater than 1 where the number of ER stressed cells (Tg) was greater than the corresponding unstressed control. Percent activation per well was calculated as the percentage of cells per well with a nuclear: ER ratio greater than the calculated threshold for that plate. […]
# ATF6 = assay: Immunoblot of the 50 kDa ATF6 fragment; format: cell-based; settings: immunoblotting
# Description: For immunoblotting, cells were lysed in 50 mM Tris buffer, pH 7.5 containing 0.1% TritonX (Fisher Scientific) and supplemented with protease inhibitor cocktail (Roche). For immunoblots of endogenous ATF6, cells were washed in PBS containing protease inhibitor cocktail and 10 μM MG-132 and subsequently lysated in 1× Laemmli buffer, supplemented in the same way, by repeating cycles of boiling and vortexing. Protein lysate concentrations were normalized by Bradford assays (Bio-Rad). Lysates or media were boiled for 10 min in Laemmli buffer+100 mM DTT before loading onto SDS-PAGE gel. Proteins were transferred from gel slabs to nitrocellulose, and the Odyssey Infrared Imaging System (Li-Cor Biosciences) was used to detect proteins of interest.
# [2] = tested on: ERSE-FLuc reporter (ATF6 arm of the UPR); assay: ERSE-FLuc reporter, 96-well, HEK293T-Rex cells (SAR and S1P inhibition); format: cell-based; settings: HEK293T-Rex; 10 μM
# Description: HEK293T-Rex cells incorporating the ERSE-FLuc reporter and HEK293^DAX cells were plated approximately 20,000 cells/well in flat-bottomed, black 96-well assay plates (Costar, Corning, Inc.) overnight prior to compound administration. Cells were treated with compounds as described for 12-18 h then the plates were equilibrated to room temperature and 50 μL of SteadyLite (PerkinElmer) was added to each well. Luminescence activity was measured in a Safire II microplate reader with a 1000 ms integration time.
# [3] = tested on: ALLC (amyloidogenic light chain); assay: ALLC secretion from ALMC-2 cells after cycloheximide administration; format: cell-based, human; settings: absence of new protein synthesis
Structure (SMILES),nuclear fraction of ATF6-GFP (ATF6 nuclear translocation) [1],accumulation of the 50 kDa ATF6 fragment (S1P/S2P proteolysis) (ATF6),ERSE reporter activity relative to 263 [2],reduction in ALLC secretion after cycloheximide [3] [%]
Cc1ccc(O)c(N/C=C/C(=O)c2ccc(F)cc2)c1 [Compound 132],significantly increased,increased accumulation,,
O=[N+]([O-])c1ccc(N/N=C/c2ccccc2O)cc1 [Compound 263],significantly increased,increased accumulation,slightly increase,
Cc1ccc(O)c(NC(=O)CCc2ccccc2)c1 [Compound 147],,,,~30
